Measurements as given in patent US20260007651A1, “Effect of YEL002 on Conditions and Diseases” (RadMit, Inc., priority 2022, published 2026).

System: lymphoma
Assay: Lymphoma incidence in mice (National Institute of Health experiment)
Assay type: in vivo
Conditions: reduced from 10-20%
Protocol: This was observed after treating mice right after birth, if humans are treated later in life it is possible that only 10 or 5 years are added and probably more for DNA repair deficient diseases like ataxia telangiectasia (ATM) which is still very substantial.

SMILES: COc1ccc2cc(-c3nc4ccc(C)cn4c3NCc3ccco3)c(=O)[nH]c2c1 [YEL002]
- spontaneous frequency of lymphoma: 0%
